In article PMC5423611, “An activity-integrated strategy of the identification, screening and determination of potential neuraminidase inhibitors from Radix Scutellariae” (PLoS ONE, 2017) one finds IC50 data, which are given here for 9 compounds.

One may read the IC50 as the concentration needed to halve the response being measured.

In the experiment the target is T1, neuraminidase (NA), neuraminidase inhibitors screen kit.
T1 construct: enzyme of a commercial Beyotime screening kit
Format: biochemical.

The mark [1] stands for this setting: 2'-(4-methylumbelliferyl)-alpha-D-N-acetylneuraminic acid substrate, 37 °C, 30 min.

Values after ≈ are worked out from the molar mass of the structure shown. Like-named read-outs stand apart in the source and are kept apart here.

`O=C(O)[C@H]1O[C@@H](Oc2cc3oc(-c4ccc(O)cc4)cc(=O)c3c(O)c2O)[C@H](O)[C@@H](O)[C@@H]1O` [compound 5, scutellarin] showed an IC50 of 321.8 ± 62.8 µg/mL (≈ 696 µM).
Take `O=c1cc(-c2ccccc2)oc2cc(O)cc(O)c12` [compound 24, chrysin]: the IC50 under setting [1] is 402.80 ± 67.8 µg/mL (≈ 1580 µM).
The compound `O=C(O)[C@H]1O[C@@H](Oc2cc3oc(-c4ccccc4)cc(=O)c3c(O)c2O)[C@H](O)[C@@H](O)[C@@H]1O` [compound 11, baicalin] displayed an IC50 under setting [1] of 267.3 ± 37.8 µg/mL (≈ 599 µM).
Regarding `O=c1cc(-c2ccc(O)cc2)oc2cc(O)c(O)c(O)c12` [compound 10, scutellarein], the IC50 under setting [1] was 664.5 ± 26.2 µg/mL (≈ 2320 µM).
In turn, `O=C(O)[C@H]1O[C@@H](Oc2cc(O)c3c(=O)cc(-c4ccccc4)oc3c2)[C@H](O)[C@@H](O)[C@@H]1O` [compound 15, chrysin-7-O-glucuronide] returned an IC50 under setting [1] of 493.6 ± 64.2 µg/mL (≈ 1150 µM).
Consider `COc1c(O[C@@H]2O[C@H](C(=O)O)[C@@H](O)[C@H](O)[C@H]2O)cc(O)c2c(=O)cc(-c3ccccc3)oc12` [compound 19, wogonoside], for which the IC50 under setting [1] was 428.3 ± 18.9 µg/mL (≈ 930 µM).
`O=c1cc(-c2ccccc2)oc2cc(O)c(O)c(O)c12` [compound 22, baicalein] showed an IC50 under setting [1] of 397.7 ± 9.91 µg/mL (≈ 1470 µM).
Turning to `COc1c(O)cc2oc(-c3ccccc3)cc(=O)c2c1O` [compound 25, oroxylin A], the IC50 under setting [1] was above 1000 µg/mL.
Regarding `COc1c(O)cc(O)c2c(=O)cc(-c3ccccc3)oc12` [compound 23, wogonin], the IC50 under setting [1] was 331.1 ± 49.4 µg/mL (≈ 1160 µM).
